Assay results published in patent publication US9938262B2, “Benzamides” (Merck Patent GmbH, priority 2011, dated 2018).

Target: T1, FSHR (Homo sapiens, UniProt P23945)
T1 construct: expressed in transfected cells; host or cells: CHO (Cho-FSHR-LUC-1-1-43)
Assay: EC50 of cyclic AMP production in CHO FSHR cells + EC20 FSH (Assay A)
Format: cell-based
Conditions: Table 1; for EC50: CHO FSHR cells + EC20 FSH, read-out: Assay A EC50 of cyclic AMP production; for activation at 5 µM: 1 h, effect relative to maximum response of the FSH standard
Method in brief: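 cAMP HTRF ratio (665/620 nm) read after 1 h, 37 °C exposure of CHO-FSHR cells to compound in presence of EC20 FSH ([…]) and IBMX 200 μM. Responses given relative to FSH standard maximum; EC50 derived.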

T1 sequence (P23945 18-695): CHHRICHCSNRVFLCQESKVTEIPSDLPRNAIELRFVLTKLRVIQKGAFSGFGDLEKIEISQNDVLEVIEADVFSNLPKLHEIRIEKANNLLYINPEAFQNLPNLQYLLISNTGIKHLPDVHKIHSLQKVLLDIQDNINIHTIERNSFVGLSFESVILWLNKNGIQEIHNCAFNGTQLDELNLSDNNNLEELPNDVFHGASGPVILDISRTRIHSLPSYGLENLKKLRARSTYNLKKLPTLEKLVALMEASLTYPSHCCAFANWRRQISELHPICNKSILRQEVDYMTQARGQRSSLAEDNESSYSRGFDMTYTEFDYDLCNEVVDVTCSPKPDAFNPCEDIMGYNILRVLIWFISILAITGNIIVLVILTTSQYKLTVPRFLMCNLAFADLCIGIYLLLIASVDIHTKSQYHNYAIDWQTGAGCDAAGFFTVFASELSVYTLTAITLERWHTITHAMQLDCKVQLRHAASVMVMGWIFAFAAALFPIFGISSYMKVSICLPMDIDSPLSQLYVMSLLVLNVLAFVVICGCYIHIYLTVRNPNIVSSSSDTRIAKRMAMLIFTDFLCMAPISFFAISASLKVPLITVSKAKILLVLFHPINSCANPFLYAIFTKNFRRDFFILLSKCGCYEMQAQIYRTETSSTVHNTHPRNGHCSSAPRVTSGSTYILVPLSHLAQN
T1 sequence (P01215 25-116 partner): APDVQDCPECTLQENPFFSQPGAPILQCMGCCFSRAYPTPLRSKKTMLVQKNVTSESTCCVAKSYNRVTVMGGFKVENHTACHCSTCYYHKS
T1 sequence (P01225 19-129 partner): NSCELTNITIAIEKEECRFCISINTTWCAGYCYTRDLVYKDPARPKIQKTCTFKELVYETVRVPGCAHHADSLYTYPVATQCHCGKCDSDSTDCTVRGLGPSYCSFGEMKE

EC50	activation at 5 µM	Compound
0.1 to 1 µM		Cc1ncc(C(=O)Nc2cc(C(=O)NCCCN3CCCC3=O)ccc2N2CCN(c3ccccc3C)CC2)s1 [Compound 198]
1 to 10 µM		CCc1ncc(C(=O)Nc2cc(C(=O)NCCCN3CCCC3=O)ccc2N2CCN(c3ccccc3C)CC2)s1 [Compound 200]
> 10 µM		Cc1ccccc1N1CCN(c2ccc(C(=O)NCCCN3CCCC3=O)cc2NC(=O)c2sc(Cl)nc2C)CC1 [Compound 201]
1 to 10 µM		Cc1ccccc1N1CCN(c2ccc(C(=O)NCCCN3CCCC3=O)cc2NC(=O)c2nc3ccccc3s2)CC1 [Compound 202]
0.1 to 1 µM		Cc1cnc(C(=O)Nc2cc(C(=O)NCCCN3CCCC3=O)ccc2N2CCN(c3ccccc3C)CC2)s1 [Compound 205]
1 to 10 µM		Cc1ccccc1N1CCN(c2ccc(C(=O)NCCCN3CCCC3=O)cc2NC(=O)c2coc(C(C)C)n2)CC1 [Compound 208]
1 to 10 µM		Cc1ccc(C(=O)Nc2cc(C(=O)NCCCn3ccnc3)ccc2N2CCN(c3ccccc3C)CC2)o1 [Compound 210, 5-Methyl-furan-2-carboxylic acid [5-(3-imidazol-1-yl-propylcarbamoyl)-2-(4-o-tolyl-piperazin-1-yl)-phenyl]-amide]
0.1 to 1 µM		C=CC(=O)NCCCNC(=O)c1ccc(N2CCN(c3ccccc3C)CC2)c(NC(=O)c2ccco2)c1 [Compound 212]
> 10 µM		Cc1ccccc1N1CCN(c2ccc(C(=O)NCCCN3CCCC3=O)cc2NC(=O)c2csc(C(C)C)c2)CC1 [Compound 213]
1 to 10 µM		Cc1ccc(C(=O)Nc2cc(C(=O)NCCN3CCN(C(=O)OC(C)(C)C)CC3)ccc2N2CCN(c3ccccc3C)CC2)o1 [Compound 214]
> 10 µM		Cc1ccccc1N1CCN(c2ccc(C(=O)NCCCN3CCCC3=O)cc2NC(=O)c2ccc(C(N)=O)o2)CC1 [Compound 216, Furan-2,5-dicarboxylic acid 2-amide 5-{[5-[3-(2-oxo-pyrrolidin-1-yl)-propylcarbamoyl]-2-(4-o-tolyl-piperazin-1-yl)-phenyl]-amide}]
0.1 to 1 µM		Cc1ccc(C(=O)Nc2cc(C(=O)NCc3cccnc3)ccc2N2CCN(c3ccccc3C)CC2)o1 [Compound 218, 5-Methyl-furan-2-carboxylic acid [5-[(pyridin-3-ylmethyl)-carbamoyl]-2-(4-o-tolyl-piperazin-1-yl)-phenyl]-amide]
1 to 10 µM		Cc1ccccc1N1CCN(c2ccc(C(=O)NCCCN3CCCC3=O)cc2NC(=O)CC2CC2)CC1 [Compound 219, 3-(2-Cyclopropyl-acetylamino)-N-[3-(2-oxo-pyrrolidin-1-yl)-propyl]-4-(4-o-tolyl-piperazin-1-yl)-benzamide]
1 to 10 µM		CCCc1cc(C(=O)Nc2cc(C(=O)NCCCN3CCCC3=O)ccc2N2CCN(c3ccccc3C)CC2)co1 [Compound 220]
0.1 to 1 µM		COc1ccc(C(=O)Nc2cc(C(=O)NCCCN3CCCC3=O)ccc2N2CCN(c3ccccc3C)CC2)nc1 [Compound 221]
0.1 to 1 µM		Cc1ccccc1N1CCN(c2ccc(C(=O)N[C@H]3O[C@@H](CO)[C@H](O)[C@@H]3O)cc2NC(=O)c2ccco2)CC1 [Compound 222]
0.1 to 1 µM		C=CC(=O)NCCNC(=O)c1ccc(N2CCN(c3ccccc3C)CC2)c(NC(=O)c2ccco2)c1 [Compound 225]
	41%	Cc1ccccc1N1CCN(c2ccc(C(=O)NCCCN3CCCC3=O)cc2NS(=O)(=O)c2cccc3ncccc23)CC1 [Compound 229]
0.1 to 1 µM		Cc1ccccc1N1CCN(c2ccc(C(=O)NCCC3C[C@H]4CC[C@@H]3C4)cc2NC(=O)c2coc(C3CC3)n2)CC1 (some centres unmarked) [Compound 231]
0.1 to 1 µM		Cc1ccccc1N1CCN(c2ccc(C(=O)NCCCc3cn[nH]c3)cc2NC(=O)c2coc(C3CC3)n2)CC1 [Compound 232]
1 to 10 µM		Cc1ccccc1N1CCN(c2ccc(C(=O)NCCC(=O)N3CCCC3)cc2NC(=O)c2coc(C3CC3)n2)CC1 [Compound 234]

EC50	activation at 5 µM	Compound
1 to 10 µM		Cc1ccccc1N1CCN(c2ccc(C(=O)NCc3ccc(Cl)cc3)cc2NC(=O)c2coc(C3CC3)n2)CC1 [Compound 235]
0.1 to 1 µM		Cc1ccccc1N1CCN(c2ccc(C(=O)NCc3cccc(-c4c[nH]cn4)c3)cc2NC(=O)c2ccco2)CC1 [Compound 236]
0.1 to 1 µM		Cc1ccccc1N1CCN(c2ccc(C(=O)NCc3cccc(-c4ccnn4C)c3)cc2NC(=O)c2ccco2)CC1 [Compound 237]
0.1 to 1 µM		Cc1ccccc1N1CCN(c2ccc(C(=O)NCc3ccccc3C(N)=O)cc2NC(=O)c2ccco2)CC1 [Compound 238]
	43%	Cc1ccccc1N1CCN(c2ccc(C(=O)NCCCN3CCCC3=O)cc2NS(=O)(=O)Cc2cccc3cccnc23)CC1 [Compound 239]
0.1 to 1 µM		Cc1ccccc1N1CCN(c2ccc(C(=O)NCc3cccc(-c4ccn(C)n4)c3)cc2NC(=O)c2ccco2)CC1 [Compound 240]
1 to 10 µM		Cc1ccccc1N1CCN(c2ccc(C(=O)NCCCN3CCCC3=O)cc2Nc2ncccn2)CC1 [Compound 242, N-[3-(2-Oxo-pyrrolidin-1-yl)-propyl]-3-(pyrimidin-2-ylamino)-4-(4-o-tolyl-piperazin-1-yl)-benzamide]
1 to 10 µM		Cc1cccc(N2CCN(c3ccc(C(=O)NCCCN4CCCC4=O)cc3NC(=O)c3ccc(C)o3)CC2)c1 [Compound 243]
	12%	Cc1ccc(N2CCN(c3ccc(C(=O)NCCCN4CCCC4=O)cc3NC(=O)c3coc(C4CC4)n3)CC2)cc1 [Compound 245]
< 0.1 µM		Cc1ccccc1N1CCN(c2ccc(C(=O)NCc3ccc(C(N)=O)cc3)cc2NC(=O)c2ccco2)CC1 [Compound 247]
< 0.1 µM		Cc1ccccc1N1CCN(c2ccc(C(=O)NCc3cccc(-c4nnn[nH]4)c3)cc2NC(=O)c2ccco2)CC1 [Compound 248]
	14%	Cc1ccc(N2CCN(c3ccc(C(=O)NCCCN4CCCC4=O)cc3NC(=O)c3coc(C4CC4)n3)CC2)cc1C [Compound 252]
	24%	Cc1ccc(C(=O)Nc2cc(C(=O)NCCCN3CCCC3=O)ccc2N2CCN(Cc3ccccc3C)[C@@H](C)C2)o1 [Compound 253]
	20%	Cc1ccc(C(=O)Nc2cc(C(=O)NCCCN3CCCC3=O)ccc2N2CCN(Cc3ccccc3C(F)(F)F)[C@@H](C)C2)o1 [Compound 254]
	22%	Cc1ccc(C(=O)Nc2cc(C(=O)NCCCN3CCCC3=O)ccc2N2CCN(Cc3ccccc3Cl)[C@@H](C)C2)o1 [Compound 255]
	26%	Cc1ccccc1CN1CCN(c2ccc(C(=O)NCCCN3CCCC3=O)cc2NC(=O)c2coc(C3CC3)n2)C[C@@H]1C [Compound 256]
	21%	C[C@H]1CN(c2ccc(C(=O)NCCCN3CCCC3=O)cc2NC(=O)c2coc(C3CC3)n2)CCN1Cc1ccccc1C(F)(F)F [Compound 257]
1 to 10 µM		Cc1ccc(C(=O)Nc2cc(C(=O)NCCCNC(=O)OC(C)(C)C)ccc2N2CCN(c3ccccc3C)CC2)o1 [Compound 258, {3-[3-[(5-Methyl-furan-2-carbonyl)-amino]-4-(4-o-tolyl-piperazin-1-yl)-benzoylamino]-propyl}-carbamic acid tert-butyl ester]
0.1 to 1 µM		CC(=O)NCCCNC(=O)c1ccc(N2CCN(c3ccccc3C)CC2)c(NC(=O)c2ccc(C)o2)c1 [Compound 259, 5-Methyl-furan-2-carboxylicacid [5-(3-acetylaminopropylcarbamoyl)-2-(4-o-tolyl-piperazin-1-yl)-phenyl]-amide]
1 to 10 µM		Cc1ccc(C(=O)Nc2cc(C(=O)NCCCN3CCCC3=O)ccc2N2CCN(c3ccccc3[N+](=O)[O-])CC2)o1 [Compound 261]
